In ChEMBL document CHEMBL5465560, “Selectivity Literature for EUbOPEN Chemogenomic Library” (2024):
One block for each compound: values may come before it.

Legend:
[1] = target: T1, Mitogen-activated protein kinase kinase kinase 12 (Homo sapiens) (UniProt Q12852); test: Selectivity interaction (KinomeScan (DiscoverX)) EUB0001049a MAP3K12; conditions: at 1 µM
T1 sequence (whole entry): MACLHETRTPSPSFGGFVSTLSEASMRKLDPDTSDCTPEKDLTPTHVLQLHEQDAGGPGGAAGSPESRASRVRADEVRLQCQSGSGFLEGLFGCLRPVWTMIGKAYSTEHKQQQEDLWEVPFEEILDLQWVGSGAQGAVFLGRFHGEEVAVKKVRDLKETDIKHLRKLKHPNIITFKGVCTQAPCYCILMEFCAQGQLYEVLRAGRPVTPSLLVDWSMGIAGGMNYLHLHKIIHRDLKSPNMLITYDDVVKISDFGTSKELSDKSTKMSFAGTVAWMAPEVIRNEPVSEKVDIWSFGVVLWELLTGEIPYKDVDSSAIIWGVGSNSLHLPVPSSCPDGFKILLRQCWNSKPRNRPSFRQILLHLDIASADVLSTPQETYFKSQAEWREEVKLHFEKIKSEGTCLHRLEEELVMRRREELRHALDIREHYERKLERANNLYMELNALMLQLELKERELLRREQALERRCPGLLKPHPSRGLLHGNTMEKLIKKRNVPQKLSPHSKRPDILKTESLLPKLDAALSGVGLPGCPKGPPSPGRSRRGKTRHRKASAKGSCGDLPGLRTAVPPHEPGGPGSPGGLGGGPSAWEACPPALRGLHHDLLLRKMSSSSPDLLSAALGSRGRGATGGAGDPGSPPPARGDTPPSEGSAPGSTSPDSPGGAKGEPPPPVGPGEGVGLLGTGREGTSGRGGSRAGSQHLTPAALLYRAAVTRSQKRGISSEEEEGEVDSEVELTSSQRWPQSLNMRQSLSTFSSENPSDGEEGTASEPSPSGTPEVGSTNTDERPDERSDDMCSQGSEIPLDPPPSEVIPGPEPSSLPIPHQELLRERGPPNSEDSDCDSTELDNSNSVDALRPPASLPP

[2] = target: Mitogen-activated protein kinase kinase kinase 8 (Homo sapiens, UniProt P41279); test: Selectivity interaction (Kinase panel (Z-LYTE Assay)) EUB0001632a MAP3K8; conditions: at 10 µM
Mitogen-activated protein kinase kinase kinase 8, sequence (P41279 whole entry): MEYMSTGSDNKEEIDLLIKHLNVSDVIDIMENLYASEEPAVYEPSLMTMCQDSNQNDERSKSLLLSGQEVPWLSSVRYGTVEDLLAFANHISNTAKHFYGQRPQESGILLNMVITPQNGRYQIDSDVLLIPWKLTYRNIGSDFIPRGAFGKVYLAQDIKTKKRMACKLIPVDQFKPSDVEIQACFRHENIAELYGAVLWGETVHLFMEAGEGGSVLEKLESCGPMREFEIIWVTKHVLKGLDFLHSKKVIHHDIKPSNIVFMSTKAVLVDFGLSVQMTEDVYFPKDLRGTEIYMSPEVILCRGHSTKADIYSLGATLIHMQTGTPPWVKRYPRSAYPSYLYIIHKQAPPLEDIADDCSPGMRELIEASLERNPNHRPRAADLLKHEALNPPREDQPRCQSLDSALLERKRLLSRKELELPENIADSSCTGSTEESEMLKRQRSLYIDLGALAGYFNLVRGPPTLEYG

[3] = target: Serine/threonine-protein kinase PAK 6 (Homo sapiens) (UniProt Q9NQU5); test: Selectivity interaction (KinomeScan (DiscoverX)) EUB0000595a PAK6; conditions: at 10 µM
Serine/threonine-protein kinase PAK 6 (Homo sapiens), sequence (Q9NQU5 whole entry, looked up): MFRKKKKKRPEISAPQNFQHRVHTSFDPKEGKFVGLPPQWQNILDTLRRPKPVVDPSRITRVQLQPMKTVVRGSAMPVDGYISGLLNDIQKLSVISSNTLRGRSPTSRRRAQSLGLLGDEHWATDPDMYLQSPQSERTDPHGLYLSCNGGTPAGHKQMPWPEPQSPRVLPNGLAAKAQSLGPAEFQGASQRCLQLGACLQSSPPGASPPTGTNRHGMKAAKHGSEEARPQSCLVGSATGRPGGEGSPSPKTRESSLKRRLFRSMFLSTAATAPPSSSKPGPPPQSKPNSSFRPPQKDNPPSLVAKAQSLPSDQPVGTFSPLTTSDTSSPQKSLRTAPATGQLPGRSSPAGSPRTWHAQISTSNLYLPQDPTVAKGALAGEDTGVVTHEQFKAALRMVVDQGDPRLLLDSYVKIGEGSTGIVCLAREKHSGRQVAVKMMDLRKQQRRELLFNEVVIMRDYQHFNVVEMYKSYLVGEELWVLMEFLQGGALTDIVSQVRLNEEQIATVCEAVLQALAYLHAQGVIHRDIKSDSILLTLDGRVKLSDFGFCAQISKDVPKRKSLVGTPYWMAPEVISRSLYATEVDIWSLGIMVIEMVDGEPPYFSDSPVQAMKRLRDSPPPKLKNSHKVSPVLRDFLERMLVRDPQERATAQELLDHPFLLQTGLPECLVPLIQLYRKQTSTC

[4] = target: T2, Phosphatidylinositol 5-phosphate 4-kinase type-2 gamma (Homo sapiens) (UniProt Q8TBX8); test: Selectivity interaction (KinomeScan (DiscoverX)) EUB0000618a PIP4K2C; conditions: at 10 µM
T2 sequence (whole entry): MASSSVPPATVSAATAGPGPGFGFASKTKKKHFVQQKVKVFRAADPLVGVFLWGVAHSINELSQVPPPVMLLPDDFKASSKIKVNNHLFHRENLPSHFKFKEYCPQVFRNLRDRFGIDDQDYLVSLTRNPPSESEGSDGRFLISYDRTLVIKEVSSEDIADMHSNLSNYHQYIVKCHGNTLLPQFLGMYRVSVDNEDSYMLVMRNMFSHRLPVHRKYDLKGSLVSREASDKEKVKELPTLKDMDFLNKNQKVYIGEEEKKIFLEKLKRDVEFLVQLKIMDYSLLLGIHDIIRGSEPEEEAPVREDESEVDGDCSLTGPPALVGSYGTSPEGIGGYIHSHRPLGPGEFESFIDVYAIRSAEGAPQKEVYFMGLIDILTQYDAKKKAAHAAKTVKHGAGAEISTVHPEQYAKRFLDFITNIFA

[5] = target: T3, Inhibitor of nuclear factor kappa-B kinase subunit beta (Homo sapiens) (UniProt O14920); test: Selectivity interaction (Kinase panel (KiNativ target engagement assay in Jurkat cells)) EUB0001635a IKBKB; assay type: cell-based; conditions: Selectivity number of off-targets 0.0, Selectivity number of targets 233.0, Source Knowledge https://www.sciencedirect.com/science/article/pii/S2451945619300674?via%3Dihub, at 1 µM
T3 sequence (whole entry): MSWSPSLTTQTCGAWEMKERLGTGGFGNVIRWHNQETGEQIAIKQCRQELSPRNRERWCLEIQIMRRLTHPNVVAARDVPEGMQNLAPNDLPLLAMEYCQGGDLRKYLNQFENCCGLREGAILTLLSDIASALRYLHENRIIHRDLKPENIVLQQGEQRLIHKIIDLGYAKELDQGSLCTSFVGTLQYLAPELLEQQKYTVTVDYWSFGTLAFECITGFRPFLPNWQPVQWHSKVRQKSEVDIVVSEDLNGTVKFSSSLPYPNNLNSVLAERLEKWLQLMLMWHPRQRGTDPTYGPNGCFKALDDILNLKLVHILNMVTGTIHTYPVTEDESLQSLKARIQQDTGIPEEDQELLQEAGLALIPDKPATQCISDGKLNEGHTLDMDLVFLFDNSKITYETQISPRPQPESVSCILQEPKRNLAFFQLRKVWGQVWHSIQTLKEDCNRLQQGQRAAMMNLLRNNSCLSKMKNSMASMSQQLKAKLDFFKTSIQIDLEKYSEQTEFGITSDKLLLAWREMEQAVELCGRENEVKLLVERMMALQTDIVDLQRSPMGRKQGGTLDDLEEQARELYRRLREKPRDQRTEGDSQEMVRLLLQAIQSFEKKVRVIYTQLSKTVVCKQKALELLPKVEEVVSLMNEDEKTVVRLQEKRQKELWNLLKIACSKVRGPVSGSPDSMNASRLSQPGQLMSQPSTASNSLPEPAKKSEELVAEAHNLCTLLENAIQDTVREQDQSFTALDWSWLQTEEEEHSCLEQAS

Compound: COc1cc(Nc2nc(C)cc(-c3cnn4nc(OC)ccc34)n2)cc(C(F)(F)F)c1
% of control [1]: 92%

% of control [2]: 4.18%
Compound: Cn1cc(-n2cnc3c(NCc4nc5cc(Cl)c(Cl)cc5[nH]4)nc(N4CCOCC4)nc32)cn1

Compound: COCC(=O)NC/C=C/c1ccc2ncnc(Nc3ccc(Oc4ccc(C)nc4)c(C)c3)c2c1 [CP-724714]
% of control [3]: 89%

Compound: O[C@H]1CC[C@H](Nc2ncc3nc(Nc4c(F)cc(F)cc4F)n([C@H]4CCOC4)c3n2)CC1
% of control [4]: 32%

Compound: C=CC(=O)Nc1ccc(C(=O)Nc2[nH]nc3c2CN(C(=O)N[C@H](CN(C)C)c2ccccc2)C3(C)C)cc1
% of engagement [5]: -20.2%
